No end group written: not given here.
What was measured:
APC [1] = molecular target: T1, APC (Homo sapiens, UniProt P04070); assay: APC anticoagulant activity, APTT and Xa-1-stage coagulation assays (mean or both); assay type: biochemical; conditions: for inhibition at 500 µM / Inhibition of APC (%): 500 μM peptide, mean of APTT and Xa-1-stage assays, 0 = no observable effect ± 10%; for IC50: final peptide concentration at which 50% inhibition of APC activity was observed
T1 construct: begins at amino acid residue position 158 and ends at 419; The light chain is 155 amino acid residues in length; tissue Factor IX concentrate from Immuno AG, Vienna; thrombin from Enzyme Research Laboratories
T1 sequence (P04070 212-461): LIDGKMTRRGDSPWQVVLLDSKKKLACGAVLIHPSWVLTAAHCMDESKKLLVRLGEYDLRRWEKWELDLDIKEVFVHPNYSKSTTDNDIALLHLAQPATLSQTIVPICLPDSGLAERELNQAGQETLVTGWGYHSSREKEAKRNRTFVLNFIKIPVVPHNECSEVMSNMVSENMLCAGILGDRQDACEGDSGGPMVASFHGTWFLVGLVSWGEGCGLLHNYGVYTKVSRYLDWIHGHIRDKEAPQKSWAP
T1 sequence (P04070 43-197): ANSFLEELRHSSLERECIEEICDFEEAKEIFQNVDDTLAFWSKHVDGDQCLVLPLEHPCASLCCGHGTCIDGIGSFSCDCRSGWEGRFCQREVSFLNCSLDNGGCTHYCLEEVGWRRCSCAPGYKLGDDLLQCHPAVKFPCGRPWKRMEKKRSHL
Experimental: (§1) The effect of the synthetic peptides on APC anticoagulant activity were determined using the APTT assay in the presence of either normal citrate anticoagulated plasma (NHP) or protein S depleted plasma (PSDP). The assays were performed essentially as described. See Marlar et al., Blood, 59:1067-1072 […]; Suzuki et al., J. Biol. Chem., 258:163-168 (1983); Gruber et al., Blood, 73:639-642 (1989); Ohlin et al., Biochem., 29:644-651 (1990). NHP was purchased from George King Bio-Medical, Inc. (Overland Park, Kans.). PSDP was prepared from a normal human citrate-anticoagulated plasma pool from ten healthy donors. Protein S was immunodepleted from the NHP by immunoaffinity chromatography of NHP over an anti-protein S antibody column to form PSDP. The anti-protein S antibody column was prepared by coupling 100 mg of a monoclonal, high-affinity, calcium-independent anti-PS antibody, designated S7, to 30 ml of CNBr-activated Sepharose 4B (Pharmacia) as described in Example 2c1).
For the APTT assay, APC was prepared as described in Example 2c2). […] The concentration of the APC used in the assay was initially optimized with respect to the sensitivity of the assay towards APC-induced prolongation of clotting time compared to clotting time without APC.
(§2) Once the optimal concentration of APC was determined, peptides from Table 2 were then separately admixed for a final concentration of 500 μM with 10 nM APC in 100 μl of TBS-BSA at pH 7.4 to form peptide-APC admixtures. The resulting admixtures were maintained for seven minutes at 37° C. Separate aliquots of peptides maintained under the same conditions in the absence of APC served as controls for the inhibitory effect of synthetic peptides on APC anticoagulant activity. After the maintenance period, 100 μl of NHP and 100 μl APTT-reagent Thrombosil (Ortho Diagnostics, Raritan, N.J.) were admixed into each peptide admixture and maintained for 200 seconds at 37° C. to form a pre-coagulation admixture. In some experiments, PSDP was used in the place of NHP to determine the effect of Protein S on the assay system. Coagulation was then initiated by the admixture of 100 μl of 30 mM CaCl2 in TBS prewarmed to 37° C. to each of the pre-coagulation admixtures. The time for clot formation was measured by an Electra 700 Automatic Coagulation Timer (Medical Laboratory Automation, Inc., Mount Vernon, N.Y.). Each peptide's effect was determined in duplicate.
The synthetic peptides listed in Table 4 are presented in the same order as listed in Table 2, i.e., are reproduced from Table 2. […] For peptides at a concentration of 500 μM that inhibited at least 50% of APC anticoagulant activity, analysis of dose-response was subsequently conducted. The column in Table 4 labeled "Inhibition of APC" represents the inhibition of APC anticoagulant activity measured with 500 μM peptide.
For testing the inhibition of the synthetic peptides on APC activity described above, Xa-1-stage coagulation assays were also performed as described. See Seegers et al., Thrombosis Res., 13:233-243 (1978); Marlar et al., supra; and Walker et al., J. Biol. Chem. 265:1484-1489 (1990).

APC [2] = molecular target: T1, APC; assay: Activated partial thromboplastin time (APTT) coagulation assay of APC anticoagulant activity; assay type: biochemical; conditions: APTT assay in the presence of APC
Experimental: as §1, with “2c1). Residual total protein S content in the resultant PSDP was less than 0.1% protein S as determined by quantitative immunoblotting, by solid-phase ELISA for total protein S and by electroimmunoassay.” for “2c1).”
For the APTT assay, APC was prepared as described in Example 2c2). The specific anticoagulant activity of APC was determined to be 250 Units/mg. The concentration of the APC used in the assay was initially optimized with respect to the sensitivity of the assay towards APC-induced prolongation of clotting time compared to clotting time without APC.
as §2
Additional assays were performed to compare the specificity of the inhibitory effect of peptide-(390-404) on APC anticoagulant activity. Both APTT and Xa-1-stage assays were performed with peptide-(390-404) and with the same peptide synthesized in the reverse order, peptide-(404-390), at concentrations of the peptides ranging from 0 μM to 40 μM. In APTT assays performed as described above in the presence of NHP, APC was used at a concentration of 2.5 nM. For APTT assays in the presence of PSDP, APC was used at a concentration of 5 nM. […]
Once the optimal concentration of APC was determined, anti-(390-404) was separately admixed ranging in concentration from 0.0 to 240 nM with APC in 200 μl of TBS-BSA and 30 mM CaCl2 at pH 7.4 to form an anti-(390-404)-APC immunoreaction admixture pre-maintenance solution. […]

Substance | inhibition at 500 µM (APC [1]) [%] | also measured
AGILGDRQDA-NH2 [peptide-(346-355), AGILGDRQDA] | 0 | –
DESKKLLVRLGEYDL [peptide-(214-230)] | – | Inhibition of APC (%) (APC [1]): 0%
DIKEVFVHPNYSKST-NH2 [(239-253), DIKEVFVHPNYSKST] | 20 | –
DRQDASEGDSGGPMV-NH2 [peptide-(351-365), DRQDA -SEGDSGGPMV] | 0 | –
DTEDQEDQVDPRLID-NH2 [peptide-(158-172), DTEDQEDQVDPRLID] | 0 | –
ELDLDIKEVFVHPNY-NH2 [peptide-(235-249), ELDLDIKEVFVHPNY] | 0 | –
EVMSNMVSENMLSAG-NH2 [peptide-(333-347), EVMSNMVSENML -SAG] | 0 | –
GEYDLRRWEKWELDL-NH2 [peptide-(224-238), GEYDLRRWEKWELDL] | 0 | –
GHIRDKEAPQKSWAP-NH2 [peptide-(405-419), GHIRDKEAPQKSWAP] | 0 | –
GTWFLVLVSWGEGC [peptide-(370-384)] | – | Inhibition of APC (%) (APC [1]): 0%
HIWDLYRSVKTYVGY-NH2 [peptide-(404-390), HIWDLYRSVKTYVGY] | 0 | –
HPSWVLTAAHSMDES-NH2 [peptide-(202-216), HPSWVLTAAH -SMDES] | 0 | –
HSSREKEAKRNRTFV-NH2 [peptide-(303-317), HSSREKEAKRNRTFV] | 0 | –
IVPISLPDSGLAERE-NH2 [peptide-(273-287), IVPI -SLPDSGLAERE] | 0 | –
LDSKKKLASGAVLIH-NH2 [peptide-(188-202), LDSKKKLA -SGAVLIH] | 0 | –
LIDGKMTRRGDSPWQ-NH2 [peptide-(170-184), LIDGKMTRRGDSPWQ] | 0 | –

Substance | inhibition at 500 µM (APC [1]) [%] | also measured
LLHLAQPATLSQTIV-NH2 [peptide-(260-274), LLHLAQPATLSQTIV] | 0 | –
LPDSGLAERELNQAG-NH2 [peptide-(278-292), LPDSGLAERELNQAG] | 0 | –
MSNMVSENMLCAGI-NH2 [peptide-(335-348), MSNMVSENMLCAGI] | 0 | –
PATLSQTIVPICLP-NH2 [peptide-(266-279), PATLSQTIVPICLP] | 0 | –
PATLSQTIVPIGLPD-NH2 [peptide-(266-280) SEQ ID NO 8, PATLSQTIVPI -- GLPD] | 0 | –
PATLSQTIVPISLPD-NH2 [peptide-(266-280) SEQ ID NO 7, PATLSQTIVPI -SLPD] | 0 | –
QDACEGDSGGPMVA-NH2 [peptide-(353-366), QDACEGDSGGPMVA] | 0 | –
QETLVTGWGYHSSRE-NH2 [peptide-(293-307), QETLVTGWGYHSSRE] | 0 | –
RRWEKWELDLDIKEV-NH2 [peptide-(229-243), RRWEKWELDLDIKEV] | 0 | –
SKKLLVRLGEYDLRR-NH2 [peptide-(216-230), SKKLLVRLGEYDLRR] | 0 | –
SKSTTDNDIALLHLA [peptide-(250-263)] | – | Inhibition of APC (%) (APC [1]): 0%
TRRGDSPWQVVLLDS-NH2 [(176-190), TRRGDSPWQVVLLDS] | 25 | –
VLNFIKIPVVPHNEC-NH2 [peptide-(317-331), VLNFIKIPVVPHNEC] | 50 | IC50 (APC [1]): 500 µM; IC50 (APC [2]): 500 µM
VLTAAHCMDESKKL-NH2 [peptide-(206-219), VLTAAHCMDESKKL] | 0 | –
VSRYLDWIHGHIRDK-NH2 [peptide-(396-410), VSRYLDWIHGHIRDK] | 95 | IC50 (APC [1]): 70 µM; IC90 (APC [1]; final peptide concentration at which 90% inhibition of APC activity was observed, read-out: IC90): 300 µM; IC50 (APC [2]): 70 µM; IC90 (APC [2]): 300 µM

Reference: patent publication US5279956A, “Activated protein C polypeptides and anti-peptide antibodies, diagnostic methods and systems for inhibiting activated protein C” (The Scripps Research Institute, priority 1991, dated 1994)
